Reference: paper PMC8286641 (European Journal of Drug Metabolism and Pharmacokinetics, 2021)

What was measured:
[1] = tested on: MATE1; conditions: read-out: IC50 MATE1; cited from earlier work
[2] = target: T1, ENT1 (Homo sapiens, UniProt Q99808); assay: Inhibition of ENT1-mediated [3H]-uridine uptake in HAP1 ENT2-KO cells; assay type: cell-based; conditions: 10 µM TKI
T1 sequence (Q99808 1-456): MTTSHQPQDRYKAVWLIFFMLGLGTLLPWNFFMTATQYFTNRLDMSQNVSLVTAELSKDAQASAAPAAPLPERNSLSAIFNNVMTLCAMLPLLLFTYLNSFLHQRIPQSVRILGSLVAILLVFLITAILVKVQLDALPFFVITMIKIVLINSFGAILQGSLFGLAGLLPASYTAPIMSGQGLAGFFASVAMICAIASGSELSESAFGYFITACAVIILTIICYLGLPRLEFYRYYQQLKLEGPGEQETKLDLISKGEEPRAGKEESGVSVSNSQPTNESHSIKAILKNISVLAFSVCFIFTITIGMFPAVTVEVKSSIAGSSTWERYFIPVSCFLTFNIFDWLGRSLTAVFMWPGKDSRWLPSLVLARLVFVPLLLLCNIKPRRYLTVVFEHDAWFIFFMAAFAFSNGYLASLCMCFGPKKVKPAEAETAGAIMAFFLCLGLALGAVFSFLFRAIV

[3] = tested on: organic anion transporter (OAT) 3 (SLC22A8); conditions: read-out: IC50 OAT3; cited from earlier work
[4] = tested on: OCT1; conditions: cited from earlier work
[5] = tested on: MATE2-K; conditions: read-out: IC50 MATE2-K; cited from earlier work
[6] = tested on: OCT2; conditions: read-out: IC50 OCT2; cited from earlier work

## N#CC[C@H](C1CCCC1)n1cc(-c2ncnc3[nH]ccc23)cn1 [Ruxolitinib, ruxolitinib]
[1]
  IC50: < 10 µM
[2]; HAP1-ENT2 KO cells, [3H]-uridine uptake 5 min at 37 °C
  % inhibition of ENT1 activity (mean ± SD): 34.1 ± 13.2 %
[2]; HAP1 ENT2-KO cells
  ENT1 inhibitor class: weak (decreased ENT1 activity by less than 35% and can thus be considered as weak ENT1 inhibitors)
[3]
  IC50: < 10 µM
[4]
  Effect on OCT1 activity (in words): fails to alter that of OCT1
[5]
  IC50: < 10 µM
[6]
  IC50: < 10 µM
